Assay results published in patent EP4748842A1, “CAMPTOTHECIN COMPOUND, ANTIBODY DRUG CONJUGATE, AND PREPARATION METHOD THEREFOR AND USE THEREOF” (Shanghai Pharmaceuticals Holding Co., Ltd., priority 2023, dated 2025).
Like-named read-outs stand apart in the source and are kept apart here.

Assays:
Assay in all cases: CTG assay, effect on proliferation ability of tumor cells
Format in all cases: cell-based, human
HCT-116 = conditions: HCT-116, 168 h, read-out: IC50 (nM) HCT-116
Description: (§1) Test method for the effect of camptothecin on the proliferation ability of tumor cells: The effect of camptothecin derivatives K1, K2, K3, K4, K5, K6, K7, K8, and K9 on the proliferation ability of tumor cells was tested using the CTG assay. Test cells (see Table 1) were digested, resuspended, and counted. The supernatant was removed by centrifugation, and the cell density was adjusted. Cell counting was performed with a cell counter: 20 µl of the cell suspension was aspirated, mixed with 20 µl of trypan blue, and 20 µl of the mixture was taken for cell counting. Cells were seeded into 96-well cell culture plates respectively, with 180 µl added to each well, and 1000 cells were plated per well. The plate was tapped gently to mix, and then placed in a 37°C cell incubator for incubation for 16 hours. Compounds were diluted with McCoy's 5A medium, and 20 µl was added to each well to achieve a maximum concentration of 100 nM, followed by 3-fold serial dilution with 10 concentration points. DMSO was used as the vehicle control, and 20 µl of McCoy's 5A medium was added to the blank control. The plate was tapped gently to mix, and then placed in a 37°C cell incubator for incubation for 7 days. After 7 days of incubation, the cell plate was taken out of the incubator, the culture medium was aspirated, 20 µl of culture medium was added to each well, and then 20 µl of CTG was added to each well. The plate was shaken on a shaker for 5 min and incubated at room temperature for 10 min. Then, 30 µl of the reaction solution was transferred to a Viewplate-96 white microplate (transparent bottom), and data analysis was performed on an EnVision microplate reader. [formula] Table 1. Overview of cell lines used in this screening

Calu-3 = conditions: Calu-3, 168 h, read-out: IC50 (nM) Calu-3
Description: as §1

NCI-N87 = conditions: NCI-N87, 168 h, read-out: IC50 (nM) NCI-N87
Description: as §1

[1] = human colon cancer cells, 7 days incubation, CTG
[2] = human lung adenocarcinoma cells, 7 days incubation, CTG
[3] = human gastric cancer cells, 7 days incubation, CTG

| Compound | IC50 (HCT-116; [1]) [nM] | IC50 (Calu-3; [2]) [nM] | IC50 (NCI-N87; [3]) [nM] | IC50 (HCT-116; Homo sapiens) [nM] | IC50 (Calu-3; Homo sapiens) [nM] | IC50 (NCI-N87; Homo sapiens) [nM] |
| --- | --- | --- | --- | --- | --- | --- |
| CC[C@@]1(O)C(=O)OCc2c1cc1n(c2=O)Cc2c-1nc1cc(F)c(C)cc1c2-c1cn(CCCCO)nn1 [Compound K3] | 1.36 | 0.43 | 3.11 |  |  |  |
| CC[C@@]1(O)C(=O)OCc2c1cc1n(c2=O)Cc2c-1nc1cc(F)c(C)cc1c2-c1cn(CCO)nn1 [Compound K1] |  |  |  | 0.77 | 0.22 | 1.89 |
| CC[C@@]1(O)C(=O)OCc2c1cc1n(c2=O)Cc2c-1nc1cc(F)c(C)cc1c2-c1ccn(CCCO)n1 [Compound K8] | 3.21 | 1.24 | 6.76 |  |  |  |
| CC[C@@]1(O)C(=O)OCc2c1cc1n(c2=O)Cc2c-1nc1cc(F)c(C)cc1c2-c1cn(CCCO)nn1 [Compound K2] | 0.89 | 0.29 | 2.21 |  |  |  |
| CC[C@@]1(O)C(=O)OCc2c1cc1n(c2=O)Cc2c-1nc1cc(F)c(C)cc1c2-c1cnn(CCCO)c1 [Compound K5] | 0.35 | 0.18 | 2.07 |  |  |  |
| CC[C@@]1(O)C(=O)OCc2c1cc1n(c2=O)Cc2c-1nc1cc(F)c(C)cc1c2-c1ccn(CCO)n1 [Compound K7] | 2.24 | 1.13 | 5.34 |  |  |  |
| CC[C@@]1(O)C(=O)OCc2c1cc1n(c2=O)Cc2c-1nc1cc(F)c(C)cc1c2-c1ccn(CCCCO)n1 [Compound K9] | 3.87 | 1.89 | 7.82 |  |  |  |
| CC[C@@]1(O)C(=O)OCc2c1cc1n(c2=O)Cc2c-1nc1cc(F)c(C)cc1c2-c1cnn(CCCCO)c1 [Compound K6] | 0.78 | 0.28 | 2.88 |  |  |  |
| CC[C@@]1(O)C(=O)OCc2c1cc1n(c2=O)Cc2c-1nc1cc(F)c(C)cc1c2-c1cnn(CCO)c1 [Compound K4] |  |  |  | 0.42 | 0.15 | 1.72 |
